Measured values as given in PMC11638965, “Leveraging Dual-Ligase Recruitment to Enhance Protein Degradation via a Heterotrivalent Proteolysis Targeting Chimera” (Journal of the American Chemical Society, 2024).
Entries after “also recorded” stand apart in the source; their conditions may differ. Read-outs that look alike come from different tables or passages of the source.

Key:
BRD4 = BRD4 (Homo sapiens, UniProt O60885); experiment: Live cell kinetic HiBiT degradation assay, HiBiT-BRD4 HEK293 cells (parental, CRBN KO, VHL KO); assay type: cell-based; details: parental, CRBN KO and VHL KO HiBiT-BRD4 HEK293 cells (Figure S5); listed as 93
Description: HEK293 HiBiT-BRD2 (LgBiT stable), HEK293 HiBiT-BRD3 (LgBiT stable), and HEK293 HiBiT-BRD4 (LgBiT stable) were created using CRISPR/Cas9 to insert at HiBiT tag at the N-terminal genomic loci of BRD2, BRD3, or BRD4 in a cell line stably expressing LgBiT protein as described previously.[23]
For kinetic degradation experiments, HEK293 HiBiT-BRD2, 3, or 4 (LgBiT stable) cells and HEK293 HiBiT-BRD4 (LgBiT) CRBN KO and VHL KO cells were plated at 20,000 cells/well in DMEM +10% FBS in white 96-well tissue culture plates and allowed to adhere overnight. The next day, media was removed and 90 μL of prewarmed CO2-independent medium (Gibco) containing Endurazine (Promega) at a 1:100 dilution from stock was added. Plates were incubated at 37 °C for 3 h to allow luminescence to equilibrate. A threefold dilution series of each PROTAC at 10x the desired final concentration was prepared (with the amount of DMSO in each treatment condition kept constant). After luminescence equilibration, a preread luminescence measurement was taken (prior to compound addition) to allow for baseline normalization to account for possible plating differences. Cells were then treated with 10 μL of the prepared PROTAC dilution series (in triplicate or quadruplicate). Treated plates were placed in a GloMax Discover luminometer (Promega) prewarmed to 37 °C and luminescence measurements were obtained every 7 min for 24 h. Kinetic degradation plots were obtained by first normalizing time course luminescence readings in each well to the preread measurement, then to the average value of the DMSO only control at each time point. Data was analyzed using GraphPad Prism (version 8) and excel. Dmax values were identified as the lowest luminescence reading in each well. Rate constant values were calculated using a one phase exponential decay Y = (Y0-Plateau) e(K*^X) + Plateau using Prism (Y0 constrained to 1). Dmax 50 values were calculated by plotting Dmax as a function of concentration, then fitting plots using the following equation: [drawing 1] to determine IC50.
HiBiT-BRD4 (LgBiT stable) HEK293 cells (Promega) were used to generate both VHL KO HiBiT-BRD4 (LgBiT stable) and CRBN KO HiBiT-BRD4 (LgBiT stable) cell lines. For VHL, gRNAs targeting exon 1 ([…]) and exon 2 ([…]) and for CRBN, gRNAs targeting exon 3 ([…]) and exon 6 ([…]) were purchased from IDT DNA (Table 5). For each gRNA, tracrRNA/crRNA duplexes were formed by combining 10 μL of 100 μM Alt-R […] (IDT), 100 μM Alt-R crRNA (IDT) and heating at 95C for 5 min, then were allowed to cool to room temp for 20 min. RNPs were then formed by combining 75 pmol Cas9 (IDT) with 2.4 μL total of prepared tracrRNA/crRNA complex (1.2 μL for each gRNA targeting each exon). Cells were then trypsinized and resuspended at 10,000,000 cells/mL in 1 mL of Mirus Ingenio electroporation solution. Three μL of 100 μM electroporation enhancer (Mirus) was added, along with 3 μL of RNP solution. Cells were electroporated in 2 mm cuvettes using a BioRad system (190 V, 950 μF, infinite resistance) and were then plated in a T75 flask in full growth medium to allow for recovery. After recovery from electroporation, knockout pools were sorted for single cells in 96-well tissue culture treated plates. Clonal populations which expanded from single cells were then screened for loss of function of VHL by treating with MZ1, or loss of function of CRBN by treating with dBET6, using a HiBiT-BRD4 luminescent readout assay. Genomic DNA isolated from candidate clones was then PCR-amplified (Table of primers below), Gibson-assembled into a pF1A plasmid backbone, transformed into E. coli., and then Sanger sequenced to confirm presence of indels in the targeted exons. […] VHL exon 3 carried a 19 bp deletion on one allele, and a 1 bp insertion on the other allele, both occurring after the premature stop codon in exon 1.

RKO WT cells = experiment: cells; assay type: cell-based, human
Description: (§1) RKO WT, VHL KO, CRBN KO and CRBN/VHL dKO cells were cultured in Dulbecco’s modified Eagle’s medium supplemented with 10% FCS and 1% penicillin–streptomycin. RKO CRBN KO and VHL KO were generated previously.[45] RKO CRBN/VHL dKO cells were generated by transiently expressing pSpCas9(BB)-2A-GFP (PX458) (Addgene 48138) loaded with a short guide RNA (sgRNA) targeting VHL (Fwd: […], Rev: […]) in RKO CRBN KO cells. Clones were single cell seeded and checked for VHL and CRBN double deletion via Western blot or PCR on genomic DNA (gDNA).
Cells were seeded in 96-well plates at a cell density of 3750 cells per well and treated for 3 days with DMSO or drug at ten √10 serial diluted concentrations. […] Cell viability was assessed using the CellTiter-Glo assay (CellTiter-Glo Luminescent Cell Viability Assay, Promega G7573) according to manufacturer instructions. Luminescence signal was measured on a Multilabel Plate Reader Platform Victor X3 model 2030 (PerkinElmer). Survival curves and EC50 values were determined using GraphPad Prism v.10.0.3 by fitting a nonlinear regression to the log10-transformed drug concentration and the relative viability after normalization of each data point to the mean luminescence of the lowest drug concentration.

RKO CRBN/VHL dKO cells = experiment: Cell viability assay (CellTiter-Glo); assay type: cell-based, human
Description: as §1
(§2) Cells were seeded in 96-well plates at a cell density of 3750 cells per well and treated for 3 days with DMSO or drug at ten √10 serial diluted concentrations. Starting concentration for all drugs was 10 μM, and each treatment was performed in biological triplicates. Cell viability was assessed using the CellTiter-Glo assay (CellTiter-Glo Luminescent Cell Viability Assay, Promega G7573) according to manufacturer instructions. Luminescence signal was measured on a Multilabel Plate Reader Platform Victor X3 model 2030 (PerkinElmer). Survival curves and EC50 values were determined using GraphPad Prism v.10.0.3 by fitting a nonlinear regression to the log10-transformed drug concentration and the relative viability after normalization of each data point to the mean luminescence of the lowest drug concentration.

RKO VHL KO cells = experiment: Cell viability assay (CellTiter-Glo); assay type: cell-based, human
Description: as §1, §2

RKO CRBN KO cells [1] = experiment: Cell viability assay (CellTiter-Glo); assay type: cell-based, human; details: 500 pM to 10 μM, 3 days (Figure 10, Table S6)
RKO CRBN KO cells [2] = experiment: Cell viability assay (CellTiter-Glo); assay type: cell-based, human; details: Homo sapiens, 72 h, 316 pM to 10 μM, 3 days, n = 6 (Figure 3C, Table S1)
Description: as §1, §2

K562 cells = experiment: Cell viability assay (CellTiter-Glo); assay type: cell-based, human; details: Homo sapiens; WT K562, 5.12 pM to 10 uM, n = 3 (Table S4)
Description: as §2, with “[…],” for “3750 cells per well and treated for 3 days with DMSO or drug at ten √10 serial diluted concentrations. Starting concentration for all drugs was 10 μM,”

KBM7 cells = experiment: Cell viability assay (CellTiter-Glo); assay type: cell-based, human; details: Homo sapiens, KBM-7; WT KBM7, 5.12 pM to 10 uM, n = 3 (Table S4)
Description: as §2, with “[…],” for “3750 cells per well and treated for 3 days with DMSO or drug at ten √10 serial diluted concentrations. Starting concentration for all drugs was 10 μM,”

[3] = Homo sapiens, 72 h, 500 pM to 10 μM, 3 days (Figure 10, Table S6), read-out: EC50 RKO WT

SMILES	on-target BRD4 degradation activity (in words) (BRD4)	EC50 (RKO WT cells; 500 pM to 10 μM, 3 days (Figure 10, Table S6), listed as 93, read-out: EC50 RKO WT) [nM]	EC50 (RKO WT cells; [3]) [nM]	EC50 (RKO CRBN/VHL dKO cells; 500 pM to 10 μM, 3 days (Figure 10, Table S6), read-out: EC50 RKO CRBN/VHL dKO) [nM]	EC50 (RKO CRBN/VHL dKO cells; Homo sapiens, 72 h, 500 pM to 10 μM, 3 days (Figure 10, Table S6), read-out: EC50 RKO CRBN/VHL dKO) [nM]	EC50 (RKO VHL KO cells; 500 pM to 10 μM, 3 days (Figure 10, Table S6)) [nM]	EC50 (RKO VHL KO cells; Homo sapiens, 72 h, 500 pM to 10 μM, 3 days (Figure 10, Table S6)) [nM]	EC50 (RKO CRBN KO cells [1]; listed as 93) [nM]	EC50 (RKO CRBN KO cells [1]; Homo sapiens, 72 h) [nM]	EC50 (RKO WT cells; Homo sapiens, 72 h, 316 pM to 10 μM, 3 days, n = 6 (Figure 3C, Table S1), read-out: EC50 RKO WT) [nM]	EC50 (RKO WT cells; Homo sapiens, RKO WT, 316 pM to 10 μM, n = 6, combination: dBET6 and MZ1 each from 5 μM (Table S7), read-out: EC50 RKO) [nM]	EC50 (RKO WT cells; Homo sapiens, WT RKO, 316 pM to 10 μM, n = 3 (Table S4), read-out: EC50 RKO) [nM]	EC50 (RKO CRBN KO cells [2]) [nM]	EC50 (RKO CRBN/VHL dKO cells; Homo sapiens, Figure 10 experiment, read-out: EC50 RKO VHL/CRBN dKO) [nM]	EC50 (RKO CRBN/VHL dKO cells; Homo sapiens, both VHL and CRBN knocked out (Figure 3C), read-out: EC50 RKO CRBN/VHL dKO) [nM]	EC50 (RKO VHL KO cells; Homo sapiens, 72 h, 316 pM to 10 μM, 3 days, n = 6 (Figure 3C, Table S1)) [nM]	EC50 (RKO VHL KO cells; Homo sapiens, Figure 10 experiment) [nM]	EC50 (K562 cells) [nM]	EC50 (KBM7 cells) [nM]
Cc1ncsc1-c1ccc([C@H](C)NC(=O)[C@@H]2C[C@@H](O)CN2C(=O)[C@@H](NC(=O)COCC(C)(COCCOCCOCCNc2cc3c(cc2F)C(=O)N(C2CCC(=O)N(C)C2=O)C3=O)COCCOCCOCCOC(=O)C[C@@H]2N=C(c3ccc(Cl)cc3)c3c(sc(C)c3C)-n3c(C)nnc32)C(C)(C)C)cc1 (mixture of isomers) [neg-AB3067 (93), (17S)-11-((2-(2-(2-((6-fluoro-2-(1-methyl-2,6-dioxopiperidin-3-yl)-1,3-dioxoisoindolin-5-yl)amino)ethoxy)ethoxy)ethoxy)methyl)-17-((2S,4R)-4-hydroxy-2-(((S)-1-(4-(4-methylthiazol-5-yl)phenyl)ethyl)carbamoyl)pyrrolidine-1-carbonyl)-11,18,18-trimethyl-15-oxo-3,6,9,13-tetraoxa-16-azanonadecyl 2-((S)-4-(4-chlorophenyl)-2,3,9-trimethyl-6H-thieno[3,2-f][1,2,4]triazolo[4,3-a][1,4]diazepin-6-yl)acetate]	inactive in VHL KO cells; also recorded: decreased relative to 27 in parental and CRBN KO cells	107	~106	~400	420	~400	391	105	~106	–	–	–	–	–	–	–	–	–	–
Cc1ncsc1-c1ccc(CNC(=O)[C@@H]2C[C@@H](O)CN2C(=O)[C@@H](NC(=O)COCCOCCOCCNC(=O)C[C@@H]2N=C(c3ccc(Cl)cc3)c3c(sc(C)c3C)-n3c(C)nnc32)C(C)(C)C)cc1 [MZ1, reference compound]	–	–	160	–	–	–	–	–	136	212	152	188	181	> 5000	> 10000	> 10000	> 5000	216	66.2
